Results taken from PMC2697958 (Molecular microbiology, 2009).

Target: Aurora kinase-1 (TbAUK1) (Trypanosoma brucei, UniProt Q384J7)
Assay: in vitro kinase assay of immunoprecipitated kinase
Type: biochemical

Question: Which IC50 does the source give for `CCS(=O)(=O)Nc1ccc2c(c1)/C(=C(/Nc1ccc(CN3CCCCC3)cc1)c1ccccc1)C(=O)N2` [Hesperadin] here?
Answer: Its IC50 is 40 nM.
